This is an account of results in patent publication US8883807B2, “Piperidinone carboxamide indane CGRP receptor antagonists” (Merck Sharp & Dohme Corp., priority 2010, dated 2014).

Test [1] deals with T1, recombinant human CL receptor/RAMP1 (Homo sapiens, UniProt O60894+Q16602).
T1 construct: expressed in transfected cells; membranes
Nature of the test: Recombinant Receptor Binding Assay (125I-hCGRP). Conditions: exemplary compounds of the invention. As for the experimental part: Recombinant Receptor: Human CL receptor (Genbank accession number L76380) was subcloned into the expression vector pIREShyg2 (BD Biosciences Clontech) as a 5′NheI and 3′ PmeI fragment. Human RAMP 1 (Genbank accession number AJ001014) was subcloned into the expression vector pIRESpuro2 (BD Biosciences Clontech) as a 5′NheI and 3′NotI fragment. HEK 293 cells (human embryonic kidney cells; ATCC #CRL-1573) were cultured in DMEM with 4.5 g/L glucose, 1 mM sodium pyruvate and 2 mM glutamine supplemented with 10% fetal bovine serum (FBS), 100 units/mL penicillin and 100 μg/mL streptomycin, and maintained at 37° C. and 95% humidity. Cells were subcultured by treatment with 0.25% trypsin with 0.1% EDTA in HBSS. Stable cell line generation was accomplished by co-transfecting 10 μg of DNA with 30 μg Lipofectamine 2000 (Invitrogen) in 75 cm^2 flasks. CL receptor and RAMP1 expression constructs were co-transfected in equal amounts. Twenty-four hours after transfection the cells were diluted and selective medium (growth medium+300 μg/mL hygromycin and 1 μg/mL puromycin) was added the following day. A clonal cell line was generated by single cell deposition utilizing a FACS Vantage SE (Becton Dickinson). Growth medium was adjusted to 150 μg/mL hygromycin and 0.5 μg/mL puromycin for cell propagation.
Recombinant Receptor Binding Assay: Cells expressing recombinant human CL receptor/RAMP1 were washed with PBS and harvested in harvest buffer containing 50 mM HEPES, 1 mM EDTA and Complete™ protease inhibitors (Roche). The cell suspension was disrupted with a laboratory homogenizer and centrifuged at 48,000 g to isolate membranes. The pellets were resuspended in harvest buffer plus 250 mM sucrose and stored at −70° C. For binding assays, 20 μg of membranes were incubated in 1 mL binding buffer (10 mM HEPES, pH 7.4, 5 mM MgCl2, and 0.2% BSA) for 3 h at room temperature containing […] ^125I-hCGRP (GE Healthcare) and antagonist. The assay was terminated by filtration through 96-well GFB glass fiber filter plates (PerkinElmer) that had been blocked with 0.05% polyethyleneimine. The filters were washed 3 times with ice-cold assay buffer (10 mM HEPES, pH 7.4, and 5 mM MgCl2). Scintillation fluid was added and the plates were counted on a Topcount (Packard). Non-specific binding was determined and the data analysis was carried out with the apparent dissociation constant (Ki) determined by using a non-linear least squares fitting the bound CPM data to the equation below:
[formula] Where Y is observed CPM bound, Ymax is total bound counts, Ymin is non specific bound counts, (Ymax−Ymin) is specific bound counts, % Imax is the maximum percent inhibition, % I min is the minimum percent inhibition, radiolabel is the probe, and the Kd is the apparent dissociation constant for the radioligand for the receptor as determined by hot saturation experiments.

The subject of another test is middle meningeal artery. As to conditions: rats, electrical stimulation of the dura mater, prior administration; cited from earlier work.
For test [2], the system named is facial blood flow. As to conditions: rat, trigeminal ganglion stimulation; cited from earlier work.
Test [3] concerns acute attacks of migraine. Conditions: clinical trials; cited from earlier work.
For test [4], the system named is facial blood flow. As to conditions: marmoset, electrical stimulation of the trigeminal ganglion; cited from earlier work.
Test [5] concerns headache induced by CGRP infusion. Conditions: control group; cited from earlier work.

Where a name gives a salt, the structure may show the parent alone. Where no end group is shown, it is not given here.

T1 sequence (Q16602 23-461): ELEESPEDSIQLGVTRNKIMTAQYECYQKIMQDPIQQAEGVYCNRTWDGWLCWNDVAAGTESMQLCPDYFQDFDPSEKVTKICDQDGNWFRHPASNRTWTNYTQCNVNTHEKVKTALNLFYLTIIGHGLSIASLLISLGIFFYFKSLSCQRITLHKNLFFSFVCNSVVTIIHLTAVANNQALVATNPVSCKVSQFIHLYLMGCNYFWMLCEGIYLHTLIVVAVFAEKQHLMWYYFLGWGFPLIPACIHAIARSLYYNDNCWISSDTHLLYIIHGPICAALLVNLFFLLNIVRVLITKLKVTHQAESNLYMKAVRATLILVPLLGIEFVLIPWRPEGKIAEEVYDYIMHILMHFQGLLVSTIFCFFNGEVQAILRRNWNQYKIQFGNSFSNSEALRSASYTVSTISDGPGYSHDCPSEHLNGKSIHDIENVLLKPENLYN
T1 sequence (O60894 27-148): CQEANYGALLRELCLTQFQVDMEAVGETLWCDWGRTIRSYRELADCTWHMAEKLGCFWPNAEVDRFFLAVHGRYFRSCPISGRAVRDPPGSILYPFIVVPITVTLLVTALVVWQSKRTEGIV

With `O=C(N[C@H]1C[C@@H](c2c(Cl)cccc2Cl)CN(CC(F)(F)F)C1=O)c1ccc2c(c1)C[C@@]1(C2)C(=O)Nc2ncccc21` [Example 9], the Ki (as a rule, a dissociation constant, usually derived from enzyme kinetics or from competition with a known ligand) in test [1] was determined as 0.24 nM.

Take `C[C@@H]1[C@H](c2cccc(Cl)c2)C[C@H](NC(=O)c2ccc3c(c2)C[C@@]2(C3)C(=O)Nc3ncccc32)C(=O)N1CC(F)(F)F` [Example 2, (2R)-N-[(3S,5S,6R)-5-(3-Chlorophenyl)-6-methyl-2-oxo-1-(2,2,2-trifluoroethyl)piperidin-3 yl]-2′-oxo-1,1′,2′,3-tetrahydrospiro[indene-2,3′-pyrrolo[2,3-b]pyridine]-5-carboxamide]: in test [1], the Ki came out at 0.17 nM.

Consider “CGRP(8-37) (VTHRLAGLLSRSGGVVKNNFVPTNVGSKAF; ends and bridges not checked; UniProt P06881 90-119, looked up, fragment) [a peptide CGRP receptor antagonist]”, for which the “effect on increase in diameter of the middle meningeal artery” value with middle meningeal artery is recorded as “blocked”. The “effect on increased facial blood flow” value in the test on facial blood flow [2] is listed as “inhibited”.

As to `O=C(N[C@@H]1CC[C@@H](c2cccc(F)c2F)CN(CC(F)(F)F)C1=O)N1CCC(n2c(=O)[nH]c3ncccc32)CC1` [telcagepant], the “effectiveness in treating acute attacks of migraine” value in test [3] is “antimigraine effectiveness”.

`CC(C)CN1C[C@H](c2cccc(F)c2F)C[C@H](NC(=O)c2ccc3c(c2)C[C@@]2(C3)C(=O)Nc3ncccc32)C1=O` [Example 14]: the Ki in test [1] stood at 0.032 nM.

Regarding `C[C@@H]1[C@H](c2ccccc2)C[C@H](NC(=O)c2ccc3c(c2)C[C@@]2(C3)C(=O)Nc3ncccc32)C(=O)N1CC(F)(F)F` [Example 1, (2R)-N-[(3S,5S,6R)-6-Methyl-2-oxo-5-phenyl-1-(2,2,2-trifluoroethyl)piperidin-3-yl]-2′-oxo-1,1′,2′,3-tetrahydrospiro[indene-2,3′-pyrrolo[2,3-b]pyridine]-5-carboxamide], the Ki in test [1] was determined as 0.079 nM.

In the case of `C[C@@H]1[C@H](c2ccccc2)C[C@H](NC(=O)c2ccc3c(c2)C[C@@]2(C3)C(=O)Nc3ncc(C#N)cc32)C(=O)N1CC(F)(F)F` [Example 16], the Ki in test [1] came to 0.13 nM.

For the compound `C[C@@H]1[C@H](c2c(F)c(F)cc(F)c2F)C[C@H](NC(=O)c2ccc3c(c2)C[C@@]2(C3)C(=O)Nc3ncncc32)C(=O)N1CC(F)(F)F` [Example 20], in test [1], the Ki was 0.021 nM.

For the compound `C[C@@H]1[C@H](c2c(F)ccc(F)c2F)C[C@H](NC(=O)c2ccc3c(c2)C[C@@]2(C3)C(=O)Nc3ncccc32)C(=O)N1CC(F)(F)F` [Example 12], the Ki in test [1] was 0.025 nM.

As to `C[C@@H]1[C@H](c2cc(F)cc(F)c2F)C[C@H](NC(=O)c2ccc3c(c2)C[C@@]2(C3)C(=O)Nc3ncccc32)C(=O)N1CC(F)(F)F` [Example 3, (2R)-N-1-[(3S,5S,6R)-6-Methyl-2-oxo-1-(2,2,2-trifluoroethyl)-5-(2,3,5-trifluorophenyl)piperidin-3-yl]-2′-oxo-1,1′,2′,3-tetrahydrospiro[indene-2,3′-pyrrolo[2,3-b]pyridine]-5-carboxamide hydrochloride], in test [1], the Ki was determined as 0.039 nM.

Regarding `O=C(N[C@H]1C[C@@H](c2cc(F)cc(F)c2)CN(CC(F)(F)F)C1=O)c1ccc2c(c1)C[C@@]1(C2)C(=O)Nc2ncccc21` [Example 4], the Ki in test [1] was determined as 0.18 nM.

Regarding `NCCCC[C@H](NC(=O)[C@@H](Cc1cc(Br)c(O)c(Br)c1)NC(=O)N1CCC(N2Cc3ccccc3NC2=O)CC1)C(=O)N1CCN(c2ccncc2)CC1` [BIBN4096BS], the “effectiveness in treating acute attacks of migraine” value in test [3] was “effective in treating acute attacks of migraine”. For the same compound, the “effect on increase in facial blood flow” value with facial blood flow [4] is reported as “blocked”. In test [5], the “prevention of headache induced by CGRP infusion” value is “able to prevent headache induced by CGRP infusion”.

For the compound `O=C(N[C@H]1C[C@@H](c2cccc(F)c2F)CN(CC(F)(F)F)C1=O)c1ccc2c(c1)C[C@@]1(C2)C(=O)Nc2ncccc21` [Example 5], in test [1], the inhibition constant (Ki) was 0.061 nM.
